Measurements from the NIST ThermoML archive (doi:10.1016/j.tca.2016.03.016).
Numbers after ± are expanded uncertainties.

What was measured:
[1] = Molar enthalpy of transition or fusion; details: DSC

Normal melting temperature (Crystal 1, DTA): 128.50 ± 1.1 °C
Triple point temperature (Crystal 2, DSC): 314.95 ± 1.2 K
Molar enthalpy of transition or fusion ([1]; Crystal 1): 0.951 ± 0.0526 kcal/mol
Molar enthalpy of transition or fusion ([1]; Crystal 2): 2.65 ± 0.124 kcal/mol
Compound: CC(C)(CO)CO [2,2-dimethyl-1,3-propanediol]
